≈ marks a conversion by molar mass, not a printed value.
Each molecule was assayed against α-glucosidase (Saccharomyces cerevisiae, UniProt P53341) (assay: Inhibition assay of α-glucosidase activity (p-nitrophenyl α-D-glucopyranoside substrate, absorbance at 405 nm)). Details: Mean ± SE, phosphate buffer pH 6.8, 37 °C, 30 min, NI: No Inhibition.
Type: biochemical
Experimental: Methanol and formic acid (HPLC grade) were purchased from Merck (Darmstadt, Germany). The ultra-pure water was purified using a Millipore Milli Q-Plus system (Millipore, Bedford, MA, USA). The α-glucosidase and p-nitrophenyl α-D-glucopyranoside were purchased from Sigma (St. Louis, USA). The enzymatic reaction results were detected on a SpectraMax M5 (Molecular Devices, San Jose, CA, USA).
The inhibition assay of α-glucosidase was measured by the method as described previously. Briefly, a total volume of 150 µL solution consisting of 100 µL phosphate buffer (0.1 M, pH 6.8), 20 µL α-glucosidase (2.4 unit/mg), 20 µL p-nitrophenyl α-D-glucopyranoside and 10 µL different concentration of test sample (12.5–500 µg/mL), was incubated for 30 min under the temperature of 37 °C, then the reaction was stopped by adding 80 µL 0.1 mM Na2CO3. The results were detected under the wavelength of 405 nm on a SpectraMax M5 (Molecular Devices, San Jose, CA, USA). The controlled sample used solvent instead of triterpenoids and the blank sample used buffer instead of α-glucosidase, respectively. The inhibition activity α-glucosidase was calculated by the following equation:Inhibition (%) = [1 − (As − Asb)/(Ac − Acb)] × 100%(2)
Herein, As, Asb, Ac and Acb are absorption of the test sample, sample blank, control and control blank, respectively. Their half maximal inhibitory concentration (IC50) were calculated and compared.

Sequence of α-glucosidase (P53341 whole entry): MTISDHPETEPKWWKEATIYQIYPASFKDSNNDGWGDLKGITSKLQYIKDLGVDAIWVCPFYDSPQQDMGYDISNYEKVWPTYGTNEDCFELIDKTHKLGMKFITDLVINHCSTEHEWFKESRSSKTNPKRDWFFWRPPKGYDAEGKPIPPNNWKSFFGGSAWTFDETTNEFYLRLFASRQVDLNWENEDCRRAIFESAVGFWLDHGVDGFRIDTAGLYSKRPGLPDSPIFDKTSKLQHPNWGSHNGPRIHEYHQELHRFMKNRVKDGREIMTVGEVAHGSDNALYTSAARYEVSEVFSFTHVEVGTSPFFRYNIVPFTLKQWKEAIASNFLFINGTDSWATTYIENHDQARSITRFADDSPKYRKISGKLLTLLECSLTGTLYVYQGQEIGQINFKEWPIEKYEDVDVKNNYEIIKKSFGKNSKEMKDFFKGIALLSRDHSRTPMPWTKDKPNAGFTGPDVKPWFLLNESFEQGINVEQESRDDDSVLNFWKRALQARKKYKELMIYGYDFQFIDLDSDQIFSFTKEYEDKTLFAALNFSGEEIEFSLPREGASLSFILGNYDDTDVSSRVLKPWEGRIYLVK

Row | SMILES | IC50 (n = 3) against α-Glucosidase
1 | C[C@H]1[C@H](C)CC[C@]2(C(=O)O)CC[C@]3(C)C(=CC[C@@H]4[C@@]5(C)C[C@@H](O)[C@H](OC(=O)/C=C\c6ccc(O)cc6)C(C)(C)[C@@H]5CC[C@]43C)[C@H]12 (relative stereo) [Compound 5, 3β-O-cis-p-coumaroyl-2α-hydroxy-urs-12-en-28-oic acid] | 1.54 ± 0.15 mg/L (≈ 2.49 µM)
2 | C[C@H]1[C@H](C)CC[C@]2(C(=O)O)CC[C@]3(C)C(=CC[C@@H]4[C@@]5(C)C[C@@H](O)[C@H](O)[C@@](C)(CO)[C@@H]5CC[C@]43C)[C@H]12 [Compound 1, asiatic acid] | no inhibition activity
3 | CC1(C)CCC2(C(=O)O)CCC3(C)C(=CCC4C5(C)CC(O)C(OC(=O)C=Cc6ccc(O)cc6)C(C)(C)C5CCC43C)C2C1 (stereo not drawn) [Compound 4, 3β-O-cis-p-coumaroyl-2α-hydroxy-olean-12-en-28-oic acid] | 2.25 ± 0.28 mg/L (≈ 3.64 µM)

Further lines, results first:

Row | IC50 (n = 3) against α-Glucosidase | SMILES
4 | 2.12 ± 0.15 mg/L (≈ 3.43 µM) | C[C@H]1[C@H](C)CC[C@]2(C(=O)O)CC[C@]3(C)C(=CCC4[C@@]5(C)C[C@@H](O)[C@H](OC(=O)/C=C/c6ccc(O)cc6)C(C)(C)C5CC[C@]43C)[C@H]12 (relative stereo) [Compound 7, 3β-O-trans-p-coumaroyl-2α-hydroxy-urs-12-en-28-oic acid]
5 | 1.93 ± 0.14 mg/L (≈ 3.12 µM) | CC1(C)CCC2(C(=O)O)CCC3(C)C(=CCC4C5(C)CC(O)C(OC(=O)C=Cc6ccc(O)cc6)C(C)(C)C5CCC43C)C2C1 (stereo not drawn) [Compound 6, 3β-O-trans-p-coumaroyl-2α-hydroxy-olean-12-en-28-oic acid]

Reference: publication PMC7143969, “Simultaneous Determination of α-Glucosidase Inhibitory Triterpenoids in Psidium guajava Using HPLC–DAD–ELSD and Pressurized Liquid Extraction” (Molecules, 2020)
